Data published in patent US20110245283A1, “Methods for predicting the response to statins” (priority 2009, published 2011).
Read-outs that look alike come from different tables or passages of the source.

Tests used:
[1] = test system: LDL; conditions: cited from earlier work
[2] = test system: LDL; conditions: second study named in the background; any dose adjustment or change; cited from earlier work
[3] = test system: LDL; test: Logistic regression models of attaining LDL goal: odds ratios for concurrent or prior drug doses; type: in vivo, patients
Method: G. Covariates for the multivariate model—The following list includes the predictors one or more of which may be tested in the multivariate models. • 1. AGE: (expressed in units of 10 years) at time that the new statin prescription was released • 2. GENDER, E. G., MALE: 1=yes, 0=no • 3. BMI (kg/M^2): last value before release date • 4. HBA1C (hemoglobin Alc): last value before release date • 5. PLDL: preceding LDL level expressed in e.g. 10 mg/dl units • 6. Statins • a. PLOVA: prior daily dose of lovastatin expressed in e.g. 10 mg units • b. […] For additional drugs: • a. AMIODOSE: amiodarone dose in mg/day • b. CARBDOSE: carbemazepine dose in mg/day • c. PIOGDOSE: pioglitazone dose expressed as number of 15 mg doses per day • d. […] METFDOSE: metformin dose expressed as number of 1000 mg doses per day • f. PHENDOSE: phenyloin dose in mg/day • g. RISPDOSE: risperidone dose in mg/day • h. ROSIDOSE: rosiglitazone dose in mg/day • i.
Body mass index (BMI) was chosen as a covariate of statin response because obese patients tend to consume a diet high in cholesterol. It was hypothesized that they would respond less well to statins because their hypercholesterolemia was more likely to be mediated by dietary indiscretion than excessive LDL synthesis. […] Metformin and the thiazolidinediones were chosen because they reduce LDL levels in diabetic patients through mechanisms that may or may not be affected by concurrent statin treatment. The remaining non-statin drugs were chosen because they are commonly used drugs that potentiate the effect of statins. They were selected by reviewing the official on-line VA pharmaceutical reference (Micromedex®) for major interactions mediated by impaired statin metabolism. […] The daily dose of the non-statin drug was calculated by the method described in Section B.
H. Assembling the predictor file—The patient identifier was used to link the new statin prescription type and dose, the preceding LDL above goal, and the type and dose of the previous statin (if any) with the patient's most recent HbA1c, most recent BMI, and the daily doses of 9 drugs with major statin interactions that were active at the time the new prescription was released.
The dependent variable was attainment of goal (LDL <100 mg/dl). […] Step selections were based upon the maximal likelihood method with α<0.15 to enter and ≧0.15 to remove.

[4] = test system: LDL; test: Proportion of CAD patients attaining LDL goal (<100 mg/dl) on a statin dose; validation sets stratified by predicted probability; conditions: for Proportion of patients achieving goal: validation set

CC[C@H](C)C(=O)O[C@H]1C[C@@H](C)C=C2C=C[C@H](C)[C@H](CC[C@@H]3C[C@@H](O)CC(=O)O3)[C@H]21 [Lovastatin, lovastatin]
Average LDL reduction ([1]; Dose 20 mg): 29%
Average LDL reduction ([1]; Dose 40 mg): 31%
Average LDL reduction ([1]; Dose 80 mg): 40-48%
Success of dose adjustment (reaching LDL goal) [2]: ≤ 50%
OR ([3]; odds of goal LDL <100 mg/dl, Lovastatin 20 mg [A] model (includes HbA1c; n = 595), per dose increment): 0.768
OR ([3]; odds of goal, Lovastatin 20 mg [B] model (excludes HbA1c; n = 733), per dose increment): 0.542
OR ([3]; odds of goal, Lovastatin 40 mg model (n = 764), per dose increment): 0.768
OR ([3]; odds of goal, Lovastatin 80 model (n = 309), per dose increment): 0.868
OR ([3]; odds of goal, Model 1, Lovastatin 20 mg, per 10 mg/day): 0.593
OR ([3]; odds of goal, Model 1, Lovastatin 40 mg, per 10 mg/day): 0.770
OR ([3]; odds of goal, Model 1, Lovastatin 80 mg, per 10 mg/day): 0.868
OR ([3]; odds of goal, Model 1, Simvastatin 10 mg, per 10 mg/day): 0.434
OR ([3]; odds of goal, Model 1, Simvastatin 20 mg, per 10 mg/day): 0.615
OR ([3]; odds of goal, Model 1, Simvastatin 40 mg, per 10 mg/day): 0.928
OR ([3]; odds of goal, Model 1, Simvastatin 80 mg, per 10 mg/day): 1.04
OR ([3]; odds of goal, Simvastatin 10 mg [B] model (includes BMI; n = 136), per dose increment): 0.341
OR ([3]; odds of goal, Simvastatin 10 mg [C] model (excludes BMI; n = 219), per dose increment): 0.382
OR ([3]; odds of goal, Simvastatin 20 mg model (n = 374), per dose increment): 0.617
OR ([3]; odds of goal, Simvastatin 40 mg model (n = 698), per dose increment): 0.921
Proportion of patients achieving goal ([4]; Lovastatin 10 mg model, Overall): 36.8%
Proportion of patients achieving goal ([4]; Lovastatin 10 mg model, predicted probability 0-19%): 10.9%
Proportion of patients achieving goal ([4]; Lovastatin 10 mg model, predicted probability 20-39%): 31.3%
Proportion of patients achieving goal ([4]; Lovastatin 10 mg model, predicted probability 40-59%): 46.8%
Proportion of patients achieving goal ([4]; Lovastatin 10 mg model, predicted probability 60-79%): 73.3%
Proportion of patients achieving goal ([4]; Lovastatin 20 mg [A] model, Overall): 49.2%
Proportion of patients achieving goal ([4]; Lovastatin 20 mg [A] model, predicted probability 0-19%): 15.0%
Proportion of patients achieving goal ([4]; Lovastatin 20 mg [A] model, predicted probability 20-39%): 25.8%
Proportion of patients achieving goal ([4]; Lovastatin 20 mg [A] model, predicted probability 40-59%): 55.1%
Proportion of patients achieving goal ([4]; Lovastatin 20 mg [A] model, predicted probability 60-79%): 73.0%
Proportion of patients achieving goal ([4]; Lovastatin 20 mg [A] model, predicted probability 80-100%): 71.4%
Proportion of patients achieving goal ([4]; Lovastatin 20 mg [B] model, Overall): 49.3%
Proportion of patients achieving goal ([4]; Lovastatin 20 mg [B] model, predicted probability 0-19%): 12.7%
Proportion of patients achieving goal ([4]; Lovastatin 20 mg [B] model, predicted probability 20-39%): 33.0%
Proportion of patients achieving goal ([4]; Lovastatin 20 mg [B] model, predicted probability 40-59%): 53.6%
Proportion of patients achieving goal ([4]; Lovastatin 20 mg [B] model, predicted probability 60-79%): 75.0%
Proportion of patients achieving goal ([4]; Lovastatin 20 mg [B] model, predicted probability 80-100%): 64.7%
Proportion of patients achieving goal ([4]; Lovastatin 40 mg model, Overall): 49.3%
Proportion of patients achieving goal ([4]; Lovastatin 40 mg model, predicted probability 0-19%): 11.1%
Proportion of patients achieving goal ([4]; Lovastatin 40 mg model, predicted probability 20-39%): 31.2%
Proportion of patients achieving goal ([4]; Lovastatin 40 mg model, predicted probability 40-59%): 50.7%
Proportion of patients achieving goal ([4]; Lovastatin 40 mg model, predicted probability 60-79%): 70.7%
Proportion of patients achieving goal ([4]; Lovastatin 40 mg model, predicted probability 80-100%): 100%
Proportion of patients achieving goal ([4]; Model 1, lovastatin 10 mg, Overall): 36.8%
Proportion of patients achieving goal ([4]; Model 1, lovastatin 10 mg, predicted probability 0-19%): 10.9%
Proportion of patients achieving goal ([4]; Model 1, lovastatin 10 mg, predicted probability 20-39%): 31.3%
Proportion of patients achieving goal ([4]; Model 1, lovastatin 10 mg, predicted probability 40-59%): 46.8%
Proportion of patients achieving goal ([4]; Model 1, lovastatin 10 mg, predicted probability 60-79%): 73.3%
Proportion of patients achieving goal ([4]; Model 1, lovastatin 20 mg, Overall): 47.4%
Proportion of patients achieving goal ([4]; Model 1, lovastatin 20 mg, predicted probability 0-19%): 8.5%
Proportion of patients achieving goal ([4]; Model 1, lovastatin 20 mg, predicted probability 20-39%): 29.0%
Proportion of patients achieving goal ([4]; Model 1, lovastatin 20 mg, predicted probability 40-59%): 54.4%
Proportion of patients achieving goal ([4]; Model 1, lovastatin 20 mg, predicted probability 60-79%): 74.6%
Proportion of patients achieving goal ([4]; Model 1, lovastatin 40 mg, Overall): 49.3%
Proportion of patients achieving goal ([4]; Model 1, lovastatin 40 mg, predicted probability 0-19%): 11.1%
Proportion of patients achieving goal ([4]; Model 1, lovastatin 40 mg, predicted probability 20-39%): 33.3%
Proportion of patients achieving goal ([4]; Model 1, lovastatin 40 mg, predicted probability 40-59%): 49.1%
Proportion of patients achieving goal ([4]; Model 1, lovastatin 40 mg, predicted probability 60-79%): 73.2%
Chance of success (reaching goal) of any dose choice ([4]; this study, all doses): ≤ 50%
